In patent US4390526A, “Pharmaceutical agents for the treatment of sickle cell disease” (Yeda Research & Development Co. Ltd., priority 1979, dated 1983):
Where a SMILES comes first, the peptide text is derived from it.

Tests used:
erythrocytes [1] = conditions: literature values, Table II; cited from earlier work
erythrocytes [2] = experiment: Transport of the novel compounds into erythrocytes; format: cell-based, human
Method: As sickle cell disease is caused by a defect of the erythrocytes, in order to study transport of a therapeutic agent for the treatment of the disease into erythrocytes, erythrocytes and no other cells must be used for the transport studies.
Washed erythrocytes were prepared by the method described in Example 2 and used for transport studies. The novel class of compounds were radioactively labelled, using for example, [^14 C]-L-Phe.

[3] = test system: erythrocytes of a sickle cell disease patient; experiment: Inhibition of sickling; format: cell-based, human; conditions: 30 minutes, deoxygenated with sodium metabisulphite
Method: A venous blood sample was obtained from the anticubital vein of a sickle cell disease patient and washed several times with phosphate buffer saline, pH 7.2, consisting of 145.4 mM NaCl, 4.0 mM KCl, 1.65 mM Na2 HPO4, 0.16 mM KH2 PO4, 0.01 mM MgCl2 and 11.1 mM glucose. The buffy coats were removed by aspiration. […] The mixture was well stoppered, incubated at 37° C. and swirled at about 100 cycles per minute in a controlled environment incubator. The standard control consisted of a 300 μl of a 20% cell suspension in the buffer in which the novel compound was dissolved. After an incubation period, 20 μl of the treated cell suspension was deoxygenated with 20 μl of 2.0% sodium metabisulphite or with nitrogen gas and examined with a Zeiss microscope.
[…] They were deoxygenated with sodium metabisulphite and examined under a Zeiss microscope.

purified HbS = target: T1, purified HbS (Homo sapiens, UniProt P68871, E7V); experiment: Determination of antigelling property (modified method of Bookchin et al.); format: biochemical; conditions: deoxygenated with sodium dithionite, 37° C.; antigelling = fluid state for more than 20 minutes
T1 construct: 150 μl of 35% of purified HbS were added and vortexed; from tissue
Method: The antigelling property of the said new class of compounds was determined by a modified method of Bookchin et al. (1967); (see Bookchin et al, J. Biol. Chem., 242, 248-255, 1967). To 10 μl of a solution of the said new class of compounds in a micro test tube, at about 37° C., 150 μl of 35% of purified HbS were added and vortexed. 15 microliters of a 10% sodium dithionite in 0.05 M phosphate buffer, pH 7.2 were added. The mixture was thoroughly mixed and flushed with nitrogen and quickly stoppered. The micro test tube was incubated at 37° C. for 30 minutes and then transferred to 0° C. for 10 minutes and then returned to 37° C. for 30 minutes. A compound was defined as having antigelling properties when the HbS inhibition mixture remained in the fluid state for a period of more than 20 minutes at 37° C.

SMILES: O=CC(O)CO (racemic) [DL--Glyceraldehyde]
- Effective Concentration In Vitro (antisickling) (erythrocytes [1]): 20 mM

SMILES: O=C(Nc1ccccn1)c1ccccc1.O=C(O)c1ccccc1 [2(Benzoyl amino) pyridinium benzoate]
- Effective Concentration In Vitro (antisickling) (erythrocytes [1]): 50 mM

SMILES: CC1(C)CCc2cc(CCCC(=O)O)ccc2O1 [3,4-dihydro-2,2-dimethyl 2H-1 Benzopyridirium-6-butyric acid]
- Effective Concentration In Vitro (antisickling) (erythrocytes [1]): 10 mM

SMILES: Cl.N[C@@H](Cc1ccccc1)C(=O)OCc1ccccc1 [Compound 1, L--Phe--OBz.HCl]
- transport into erythrocytes (erythrocytes [2]): rapidly transported into erythrocytes by a carrier mediated process
- Michaelis constant for transport (erythrocytes [2]; 14C-labelled compound, washed erythrocytes): 0.175 mM
- PERCENT OF INCORPORATION (erythrocytes [2]; TIME 0): 0%
- PERCENT OF INCORPORATION (erythrocytes [2]; TIME 10): 30%
- PERCENT OF INCORPORATION (erythrocytes [2]; TIME 20): 70%
- PERCENT OF INCORPORATION (erythrocytes [2]; TIME 30): 90%
- PERCENT OF INCORPORATION (erythrocytes [2]; TIME 45): 100%
- PERCENT OF INCORPORATION (erythrocytes [2]; TIME 60): 90%
- Percentage of Normal Cells ([3]; 3 mM of the compound): 90%
- moles of compound to one mole of HbS at which gelation of HbS is inhibited (purified HbS): 6 moles to one mole HbS

SMILES: Cl.N[C@@H](Cc1ccc(O)cc1)C(=O)OCc1ccccc1 [Compound 2, L--Tyr--OBz.HCl]
- Percentage of Normal Cells ([3]; 0.5 mM of compound): 70%

SMILES: Cl.N[C@@H](Cc1c[nH]c2ccccc12)C(=O)OCc1ccccc1 [Compound 3, L--Try--OBz.HCl]
- Percentage of Normal Cells ([3]; 0.5 mM of compound): 95%
- moles of compound to one mole of HbS at which gelation of HbS is inhibited (purified HbS): 4 moles to one mole HbS

SMILES: Cl.O=C(OCc1ccccc1)[C@@H]1CCCN1 [Compound 4, L--Pro--OBz.HCl]
- Percentage of Normal Cells ([3]; 3 mM of the compound): 60%

SMILES: Br.N[C@@H](Cc1ccccc1)C(=O)OCc1ccc([N+](=O)[O-])cc1 [Compound 6, L--Phe--OBz (pNO2).HBr]
- Percentage of Normal Cells ([3]; 3 mM of the compound): 90%

SMILES: Br.O=C(OCc1ccc([N+](=O)[O-])cc1)[C@@H]1CCCN1 [Compound 7, L--Pro--OBz (pNO2).HBr]
- Percentage of Normal Cells ([3]; 3 mM of the compound): 80%

SMILES: Cc1ccc(S(=O)(=O)O)cc1.NC(Cc1c[nH]cn1)C(=O)OCc1ccc([N+](=O)[O-])cc1 [Compound 8, L--His--OBz (pNO2) pTS]
- Percentage of Normal Cells ([3]; 3 mM of the compound): 70%

SMILES: Br.C[C@H](N)C(=O)N[C@@H](Cc1ccccc1)C(=O)OCc1ccccc1 [Compound 9, L--Ala--L--Phe--OBz.HBr]
- Percentage of Normal Cells ([3]; 3 mM of the compound): 90%

SMILES: Br.NCC(=O)N[C@@H](Cc1ccccc1)C(=O)OCc1ccccc1 [Compound 10, L--Gly--L--Phe--OBz.HBr] (HELM PEPTIDE1{G.F.[c1ccc(CO[*:1])cc1]}$$$$V2.0)
- Percentage of Normal Cells ([3]; 3 mM of the compound): 90%

SMILES: N[C@@H](Cc1ccccc1)C(=O)NCc1ccccc1 [Compound 11, L--Phe--Benzyl amide]
- Percentage of Normal Cells ([3]; 3 mM of the compound): 70%

SMILES: CC(C)[C@H](N)C(=O)OCc1ccccc1 [Compound 12, L--Val--OBz]
- Percentage of Normal Cells ([3]; 3 mM of the compound): 50%

SMILES: CC(C)C[C@H](N)C(=O)OCc1ccccc1 [Compound 13, L--Leu--OBz]
- Percentage of Normal Cells ([3]; 3 mM of the compound): 55%

SMILES: Br.CC(NC(=O)C(N)Cc1ccccc1)C(=O)OCc1ccccc1 [Compound 14, L--Phe--L--Ala--OBz.HBr]
- Percentage of Normal Cells ([3]; 3 mM of the compound): 70%

SMILES: Br.NCCCC[C@H](NC(=O)[C@@H](N)Cc1c[nH]c2ccccc12)C(=O)OCc1ccccc1 [Compound 15, L--Try--Lys--OBz.HBr] (HELM PEPTIDE1{W.K.[c1ccc(CO[*:1])cc1]}$$$$V2.0)
- Percentage of Normal Cells ([3]; 3 mM of the compound): 70%

SMILES: Cl.N[C@H](Cc1ccccc1)C(=O)OCc1ccccc1 [Compound 16, D--Phe--OBz.HCl]
- Percentage of Normal Cells ([3]; 3 mM of the compound): 90%
- moles of compound to one mole of HbS at which gelation of HbS is inhibited (purified HbS): 6 moles to one mole HbS

SMILES: CCCCCCCCCCCCCCCCCCOC(=O)[C@@H](N)Cc1ccc(O)cc1.Cl [Compound 17, L--Tyr--O Octadecyl.HCl, reference compound]
- Percentage of Normal Cells ([3]; 3 mM of the compound): 10%

SMILES: N[C@@H](Cc1ccccc1)C(=O)O [Compound 18, L--Phe, reference compound]
- Percentage of Normal Cells ([3]; 3 mM of the compound): 0%

SMILES: NCCSSCCN [Cystamine]
- Effective Concentration In Vitro (antisickling) (erythrocytes [1]): 220 mM

SMILES: CC(=O)Oc1c(Br)cc(Br)cc1C(=O)O [Dibromo aspirin]
- Effective Concentration In Vitro (antisickling) (erythrocytes [1]): 5 mM

SMILES: COC(=N)CCCCC(=N)OC [Dimethyl Adipimidate]
- Effective Concentration In Vitro (antisickling) (erythrocytes [1]): 10 mM

SMILES: N#C[O-].[K+] [Potassium Cyanate]
- Effective Concentration In Vitro (antisickling) (erythrocytes [1]): 100 mM

SMILES: Cc1ncc(CO)c(C=O)c1O [Pyridoxal]
- Effective Concentration In Vitro (antisickling) (erythrocytes [1]): 20 mM

SMILES: NC(N)=O [Urea]
- Effective Concentration In Vitro (antisickling) (erythrocytes [1]): 100 mM
